Entries after “also recorded” stand apart in the source; their conditions may differ.
Experiments:
[1] = tested on: Zucker Diabetic Fatty (ZDF) rats; assay: Glycemic control and HbA1c in ZDF rats, 28-day dosing plus 28-day washout (Examples 104, 106); assay type: in vivo
Method: Rats were treated daily with Compound 10, liraglutide, or vehicle for twnety-eight days and monitored for an additional twenty-eight days post-treatment.
Zucker Diabetic Fatty (ZDF) rats were dosed daily with Compound 10, liraglutide, or vehicle for twenty-eight days (n=10 per group) and monitored for an additional twenty-eight days post last dose. Fasting blood glucose, insulin, C-peptide levels, HbA1c, oral glucose tolerance test (OGTT), and body weight were monitored during and post-treatment.
ZDF Rat Model—five treatment groups 1. Vehicle; 2. Compound 10 at 40 mg/kg; 3. Compound 10 at 85 mg/kg; 4. Compound 10 at 170 mg/kg; and 5. Liraglutide at 0.2 mg/kg; n=10 per group. Group 2 dose (40 mg/kg) was increased to 200 mg/kg on Day 17 for rest of the dosing phase. Daily dosing zero to twenty-eight days days QD→drug wash out twenty-eight to fifty-six days. Rats were monitored for the following parameters through dosing and wash out phases—body weight, fasting blood sugar, blood insulin, C-peptide, OGTT, and HbA1C.

[2] = tested on: DLBCL cell lines (DHL, THL, DEL, GCB); assay: DLBCL cell line proliferation (Cell Titer Glo, four days); assay type: cell-based
Method: (§1) Compound A was tested against a THL cell line (VAL), and a DEL cell line (U2932). An expanded panel of DHL cell lines were tested for sensitivity to Compound A. Ex vivo patient samples of THL and MYC-amplified DLBCL were tested with Compound A. Sensitivity of THL and MYC-driven DLBCL in both in vitro and ex vivo models were compared with clinical reversible menin inhibitors. Compound A was tested against a panel of MM cell lines and ex vivo MM patient samples of p53del, 13qdel, and relapsed/refractory cases.
(§2) DLBCL cell line TOLEDO was cultured in the presence of Compound A or clinical reversible menin inhibitors for six and fourteen hours. Menin protein expression was reduced up to 60% at 1 μM by Compound A after fourteen hours compared to clinical reversible inhibitors at <20% at similar concentrations. Menin protein expression was measured by the Wes system and analyzed using the Compass software (automated western blotting, Protein Simple). Signal was normalized to GAPDH and referenced to DMSO control (FIG. 171E). DLBCL and MM cell lines were cultured with Compound A, bortezomib (PS-341), or DMSO for four days and cell proliferation was measured by Cell Titer Glo. Ex vivo studies of DLBCL and MM models were conducted by measurement of cell proliferation (Cell Titer Glo) after six days of treatment with Compound A, PS-341, or DMSO control.

KRAS and MEN1 expression = assay: RNA-seq gene expression in MiaPaCa-2 cells; assay type: cell-based, human; design: dose or concentration left out as unconfirmed; conditions: MiaPaCa-2 cells after twenty-four hours
Method: MOLM-13 and MiaPaCa-2 cells were incubated with Compound A for twenty-four hours and were analyzed by RNA-seq on an Illumina NextSeq 550 platform. […] Cell viability was measured using CellTiterGlo. Human ex vivo PDX tissue models harboring KRAS mutations were cultured with Compound A and clinical reversible menin inhibitors for six days. Cell viability was measured using CellTiter Glo.

[3] = tested on: streptozotocin (STZ) induced type II diabetes in Wistar Han rats; assay: Glycemic control in streptozotocin-induced diabetic rats (Examples 103, 105); assay type: in vivo, rat
Method: The present example provides the ability of Compound 10 to restore glycemic control to streptozotocin (STZ) induced type II diabetes in Wistar Han rats. Fahmy et al., 2017, World J. Pharm. Med. Res. 3(3):37-39.
Control and test compounds were stored at 4° C. and prepared weekly as needed. The vehicle for positive control pioglitazone was 0.25% carboxymethylcellulose and 1% Tween® 80 in reverse osmosis deionized water. The vehicle for Compound 10 was 10% DMSO, 10% Solutol HS 15, and 80% (10% hydroxypropyl-β-cyclodextrin in 50 mM citrate buffer at pH 3.0). The vehicle for streptozotocin pretreatment was 0.1 M sodium citrate pH 4.5.
On Day −3, twenty-four Wistar Han rats (plus eight spare Wistar Han rats) were measured for body weight and non-fasting glucose. Starting on Day −42, D12451 Research Diet was provided ad libitum throughout the study, except during designated procedures, as was water. In order to minimize the effects of stress on blood glucose and body, all animals including the spares received daily sham doses with phosphate buffered saline pH 7.2 (dose volume 5 mL/kg) via gavage beginning on Study Day −5 to Day −1. 20% Glucose in drinking water (200 g/L) was provided ad libitum for 24 hr after streptozotocin injection on Day −14 and Day −7.
On Days −14 and −7, streptozotocin was administered at 30 mg/kg/day QD intraperitoneally. Starting on Day 1, control and test compound were administered on the following schedule.
On Days −7 to −1 and on Days 1, 8, and 14 non-fasting blood glucose was measured. On Day 15, an oral glucose tolerance test was administered. The animals were weighed and the animals were placed in clean cages without food. Access to water was provided throughout the procedure. The animals were fasted for five hours and a blood glucose measurement was determined. The animals were dosed via oral gavage with 2 g/kg glucose (10 mL/kg). Blood glucose was determined via venipuncture. The second drop of blood from the animal was placed on a hand-held glucometer (Abbott Alpha Trak) at the following times relative to the glucose dose: zero (just prior to glucose dose), 15, 30, 60, 90, and 120 min. Following the final blood glucose measurement, food was returned to the cages. On Day 17, 4-hour fasting glucose was measured. Serum samples were used to measure insulin by ELISA. Analysis was performed in one to three days of each collection. On Day 17, terminal blood collection was obtained at about 8 mL per animal and measured for blood glucose.
ZDF rats were treated daily with Compound 10, vehicle, or pioglitazone for sixteen days and monitored for an additional two weeks post-treatment until Day 29. STZ rat models were induced through pre-treatment of animals on a high-fat diet with low doses of streptozotocin at Day −14 and Day −7 prior to starting treatment at Day Zero until Day 16. ZDF and STZ rats were monitored for fasting blood glucose levels, oral glucose tolerance test (OGTT), insulin and C-peptide levels, HOMA-IR (Homeostatic Model Assessment of Insulin Resistance), blood lipemic levels, and body weight according to the schematic for each model below. ZDF rats were analyzed for indicated readouts for fifteen days post-treatment for OGTT at Day 29, and serum insulin and C-peptide at Day 31.
STZ Rat Model—three treatment groups 1. Vehicle; 2. Compound 10 at 175 mg/kg; and 3. Pioglitazone at 30 mg/kg; n=10 per group. […] Rats were monitored for the following parameters through dosing—body weight, blood glucose levels, and OGTT.

MM cell lines = assay: MM cell line proliferation (Cell Titer Glo, four days); assay type: cell-based
Method: as §1, §2

In the case of `C=CC(=O)N[C@@H]1CCCN(Cc2ccnc(C(=O)Nc3ccc(-c4cc5c(N6CCOCC6)ncnc5[nH]4)cc3)c2)C1` [Compound A, N-[4-[4-(4-morpholinyl)-7H-pyrrolo[2,3-d]pyrimidin-6-yl]phenyl]-4-[[3(R)-[(1-oxo-2-propen-1-yl)amino]-1-piperidinyl]methyl]-2-pyridinecarboxamide], the “glycemic control by oral glucose tolerance test (OGTT)” value ([1]; Day 25, versus vehicle) is reported as “improved glycemic control”, the tolerability ([1]; daily for 28 days) is reported as “tolerated Compound 10 well” and the “HbA1c at all doses tested” value ([1]; effects lasting fifteen days after the last dose) is reported as “significant reductions”. For the same compound, the “4-hour fasting blood glucose” value ([1]; high-dose arm, up to Day 29, listed as Compound 10) was “strong reduction; also recorded: sustained and significant reduction”, the cell lethality ([2]; DHL, THL, and DEL DLBCL cell lines, four days) was greater than 90% and the “growth inhibition of THL and DEL cell line models” value ([2]; VAL, U2932) was “complete growth inhibition”. For the same compound, the “KRAS and MEN1 expression levels” value (KRAS and MEN1 expression) was “marked reduction”, the blood lipemic levels ([3]; STZ rats) was “Significant reductions” and the body weight ([3]; STZ rats) was “Significant reductions”. For the same compound, the “oral glucose tolerance test, glucose control” value ([3]; STZ rats, after fifteen days of treatment) was “significant glucose control”, the “insulin in the non-fasting state” value ([3]; STZ-induced diabetes model) was “significant reduction” and the non-fasting glucose ([3]; STZ-induced diabetes model, compared to vehicle and control) was “sharp reduction”. For the same compound, the cell lethality (MM cell lines) was greater than 99%.

— patent US20260232681A1, “CRYSTALLINE FORMS OF N-[4-[4-(4-MORPHOLINYL)-7H-PYRROLO[2,3-D]PYRIMIDIN-6- YL]PHENYL]-4-[[3(R)-[(L-OXO-2-PROPEN-L-YL)AMINO]-L-PIPERIDINYL]METHYL]-2-PYRIDINECARBOXAMIDE AS A COVALENT INHIBITOR OF MENIN-MLL INTERACTION” (BIOMEA FUSION, INC., priority 2023, published 2026)
